According to patent US20110118209A1 (priority 2006, published 2011):
Like-named read-outs stand apart in the source and are kept apart here.

What was measured:
[1] = tested on: primary rabbit kidney proximal tubule (RPT) cells
human lox-IMVI melanoma = format: in vivo
P388/CPA = format: in vivo, mice
L1210/0 = format: in vivo, mice
P388/0 = format: in vivo, mice
L1210/CPA = format: in vivo, mice
B16 Melanoma = tested on: B16 Melanoma; set-up: species or system mice; conditions: mouse, in vivo
mice [2] = conditions: 75 mg/kg, either sex
in vivo = conditions: rat, po
mice [3] = assay: Tolerability of IPM in tumor-bearing mice (Example 4 studies); format: in vivo; conditions: IP and IV treatment
Excerpt: This example describes the evaluation of IPM against several different cancer cell lines implanted in mice.

[4] = 175 mg/kg IP day 1 only, female CDF1 mice
[5] = 265 mg/kg IP day 1 only, female CDF1 mice
[6] = 200 mg/kg IP day 2 only, male CDF1 mice

## O=P1(NCCCl)OCCC(OO)N1CCCl (stereo not shown) [HIFA, 4-hydroperoxyifosfamide]
[1]
  effect on viability: did not significantly affect viability

## O=CCCl [chloroacetaldehyde]
[1]; rabbit
  concentration of complete inhibition: 75 µM

## O=P1(N(CCCl)CCCl)NCCCO1 (stereo not shown) [CPA, cyclophosphamide]
Human lox-IMVI melanoma; 40 mg/kg/dose IV Q1 D × 5, nude mice
  Median Day of Death: 42.0 days
P388/CPA; [4]
  Net log10 Reduction in tumor burden after therapy: 3 log10
P388/CPA; [5]
  Net log10 Reduction in tumor burden after therapy: 3 log10
L1210/0; [6]
  Net log10 Reduction in tumor burden after therapy: 7 log10
P388/0; [4]
  Net log10 Reduction in tumor burden after therapy: 7 log10
P388/0; [5]
  Net log10 Reduction in tumor burden after therapy: 7 log10
L1210/CPA; [6]
  Net log10 Reduction in tumor burden after therapy: 4 log10

## O=P1(NCCCl)OCCCN1CCCl (stereo not shown) [Ifos, Ifosfamide]
P388/CPA; mouse, in vivo
  Net log10 Reduction in tumor burden after therapy: 4 log10
L1210/0; mouse, in vivo
  Net log10 Reduction in tumor burden after therapy: 8 log10
P388/0; mouse, in vivo
  Net log10 Reduction in tumor burden after therapy: 7 log10

## O=P(O)(NCCCl)NCCCl [IPM, N,N′-di(2-chloroethyl)phosphorodiamidic acid]
Human lox-IMVI melanoma; in vivo
  Median Day of Death: 29.0 days
P388/CPA; mouse, in vivo
  Net log10 Reduction in tumor burden after therapy: 7 log10
L1210/0; mouse, in vivo
  Net log10 Reduction in tumor burden after therapy: 8 log10
B16 Melanoma
  efficacy compared with CPA and Ifos: slightly inferior to CPA but better than Ifos
Mice [2]
  microscopic findings: No obvious treatment-related microscopic findings
In vivo
  LD50: 1400 to 3500 mg/kg
Mice [3]
  tolerability: tolerated intraperitoneal (IP) and intravenous (IV) treatment with IPM well
L1210/CPA; mouse, in vivo
  Net log10 Reduction in tumor burden after therapy: 7 log10

## O=P1(NCCCl)OCCC(O)N1CCCl (stereo not shown) [4-hydroxyifosfamide]
[1]
  cell death: extensive cell death

## C=CC=O [acrolein]
[1]; rabbit
  LD50: 80 µM
